Test systems include SK-MEL-28 melanoma; M14 melanoma; A549 NSCLC; OVCAR-5 ovarian; 786-0 renal; OVCAR-3 ovarian; LOX IMVI melanoma; OVCAR-4 ovarian; RPMI-8226 leukemia; XF 498 CNS; KM20L2 colon.
What all share (assay): NCI-60 cell line screen, 48 h

The text below walks through data of PubChem BioAssay (NCI).

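Following 48 hours of exposure in 96-well plates, responses at five concentrations were used to interpolate endpoints linearly. The concentration for full growth arrest is given as TGI.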 Where a SMILES comes first, the peptide text is derived from it. The star is where a group is joined. Bn = c1ccc(C*)cc1

With `CC12CC1C(c1cccc([N+](=O)[O-])c1)(c1cccc([N+](=O)[O-])c1)N=N2` (centres undefined), the TGI was above 100 µM in the assay with SK-MEL-28 melanoma; above 100 µM in the assay on M14 melanoma; above 100 µM in the assay with A549 NSCLC; above 100 µM in the assay on OVCAR-5 ovarian; 52.7 µM in the assay with 786-0 renal; above 100 µM in the assay on OVCAR-3 ovarian. Moreover, the values for the TGI in the assay with LOX IMVI melanoma, with OVCAR-4 ovarian and in the assay on RPMI-8226 leukemia were 27.8 µM, 80.3 µM and 35.9 µM, respectively.
Take `Cn1ccnc1Sc1ccc(C=Nc2ccc3nc(SCC(=O)NC4CCCCC4)sc3c2)cc1[N+](=O)[O-]`: the TGI in the assay on SK-MEL-28 melanoma is above 100 µM; in the assay on M14 melanoma it was above 100 µM; with A549 NSCLC it was above 100 µM; with OVCAR-5 ovarian it was above 100 µM; in the assay on 786-0 renal, 49 µM; in the assay on OVCAR-3 ovarian, above 100 µM. The TGI with LOX IMVI melanoma, in the assay with OVCAR-4 ovarian and in the assay with RPMI-8226 leukemia was above 100 µM throughout.
For the molecule `COc1ccc(/C=N/N2C(=O)c3c(N)c(C#N)c(-c4ccccc4)c(-c4ccccc4)c3C2=O)cc1`, the TGI in the assay with SK-MEL-28 melanoma, in the assay with M14 melanoma, in the assay on A549 NSCLC, in the assay on OVCAR-5 ovarian, in the assay with 786-0 renal and with OVCAR-3 ovarian was above 100 µM throughout. Besides, the TGI with LOX IMVI melanoma, with OVCAR-4 ovarian and in the assay on RPMI-8226 leukemia was above 100 µM throughout.
In the case of `O=C(O)c1ccc2c(c1)CC1(C2)Cc2cc3c(cc2C1=O)CCC3` (centres undefined), the TGI with SK-MEL-28 melanoma, with M14 melanoma, in the assay on A549 NSCLC, in the assay with OVCAR-5 ovarian, with 786-0 renal and in the assay on OVCAR-3 ovarian was above 100 µM in each case. Also, the TGI in the assay on LOX IMVI melanoma, in the assay on OVCAR-4 ovarian and in the assay on RPMI-8226 leukemia was above 100 µM throughout.
Turning to `CC1=C[C@@H](C)C[C@]2(C)CC[C@H](O2)[C@]23CC[C@](C(=O)O)(C[C@H](O2)[C@@H]2O[C@@](C)(CC2=O)[C@@H](O)[C@H]2CC[C@@]4(CCC[C@@H](O4)[C@H](C)C(=O)O[C@H]4C[C@H]([C@]5(O)OCC[C@H](C)[C@@H]5O)O[C@H]4C=C1)O2)O3`, the TGI with SK-MEL-28 melanoma, in the assay on M14 melanoma, with A549 NSCLC, with OVCAR-5 ovarian, in the assay on 786-0 renal and in the assay with OVCAR-3 ovarian was above 10 µM throughout. In addition, the TGI with LOX IMVI melanoma, in the assay on OVCAR-4 ovarian and in the assay with RPMI-8226 leukemia was above 10 µM each time.
For `O=C1CCc2ccc3c(c21)CC1(Cc2ccccc2C1)C3`, the TGI in the assay on SK-MEL-28 melanoma is 88.9 µM; with M14 melanoma, above 100 µM; in the assay on A549 NSCLC it was 29.6 µM; with OVCAR-5 ovarian it was 44.2 µM; with 786-0 renal it was 48.1 µM; in the assay with OVCAR-3 ovarian, 28.8 µM. Also, the results for the TGI in the assay on LOX IMVI melanoma, with OVCAR-4 ovarian and in the assay with RPMI-8226 leukemia were 20.1 µM, above 100 µM and above 100 µM, respectively.
`COc1cc2c(c(O)c1O)-c1ccc(OC)c(=O)cc1C(NC(C)=O)CC2` (centres undefined): the TGI is 38.5 µM in the assay with XF 498 CNS; above 100 µM with SK-MEL-28 melanoma; above 100 µM in the assay on M14 melanoma; above 100 µM in the assay on A549 NSCLC; above 100 µM in the assay on OVCAR-5 ovarian; above 82.8 µM in the assay on 786-0 renal. Further, the TGI in the assay with OVCAR-3 ovarian was 8.3 µM; with LOX IMVI melanoma, 34.8 µM; in the assay on OVCAR-4 ovarian, above 84.2 µM; in the assay with RPMI-8226 leukemia, above 43.7 µM; in the assay with KM20L2 colon, 11 µM.
Take `OCC(O)C(O)C(O)/C=N/Nc1nc(O)c(/C=C2\C=Nc3ccccc32)[nH]1` (centres undefined): the TGI with SK-MEL-28 melanoma, in the assay with M14 melanoma, in the assay with A549 NSCLC, in the assay on OVCAR-5 ovarian, with 786-0 renal and with OVCAR-3 ovarian was above 100 µM each time. In addition, the TGI in the assay on LOX IMVI melanoma, with OVCAR-4 ovarian and in the assay with RPMI-8226 leukemia was above 100 µM throughout.
Consider `Clc1ccc(Cl)c(SCCCN2CCNCC2)c1`, for which the TGI came out at 26.9 µM in the assay with SK-MEL-28 melanoma; 35.3 µM in the assay on M14 melanoma; 44.4 µM in the assay on A549 NSCLC; 32.5 µM in the assay on OVCAR-5 ovarian; 52.1 µM with 786-0 renal; 47.4 µM in the assay with OVCAR-3 ovarian. For the same molecule, the figures for the TGI with LOX IMVI melanoma, in the assay with OVCAR-4 ovarian and with RPMI-8226 leukemia were 35.8 µM, 47.9 µM and 48.6 µM, respectively.
Regarding `CCc1nc2cc3cccnc3c(Cl)c2[nH]c1=O`, the TGI with SK-MEL-28 melanoma, in the assay on M14 melanoma, with A549 NSCLC, in the assay with OVCAR-5 ovarian, with 786-0 renal and in the assay on OVCAR-3 ovarian was above 100 µM in each case. Further, the TGI in the assay with LOX IMVI melanoma, with OVCAR-4 ovarian and in the assay on RPMI-8226 leukemia was above 100 µM in each case.
`COC(=O)C(CC(C)C)NC(=O)C(N)Cc1ccc(OCc2ccccc2)cc1` (centres undefined) (H-Tyr(Bn)-Leu-OMe; configuration not given here): the TGI in the assay with SK-MEL-28 melanoma, in the assay on M14 melanoma, in the assay on A549 NSCLC, in the assay on OVCAR-5 ovarian, with 786-0 renal and with OVCAR-3 ovarian was above 10 µM throughout. The TGI with LOX IMVI melanoma, in the assay with OVCAR-4 ovarian and in the assay with RPMI-8226 leukemia was above 10 µM each time.
In the case of `O=C(CCc1cccc(O)c1)NCCCNC(=O)CCc1cccc(O)c1`, the TGI in the assay with SK-MEL-28 melanoma, in the assay on M14 melanoma, in the assay with A549 NSCLC, in the assay on OVCAR-5 ovarian, with 786-0 renal and in the assay on OVCAR-3 ovarian was above 100 µM each time. For the same molecule, the TGI with LOX IMVI melanoma, with OVCAR-4 ovarian and in the assay with RPMI-8226 leukemia was above 100 µM in each case.
For the molecule `O=C(O)CC(NC(=O)/C(=C/c1ccccc1O)NC(=O)c1ccccc1)C(=O)O` (centres undefined), the TGI in the assay with SK-MEL-28 melanoma, in the assay with M14 melanoma, with A549 NSCLC, in the assay on OVCAR-5 ovarian, in the assay with 786-0 renal and in the assay with OVCAR-3 ovarian was above 100 µM each time. The TGI with LOX IMVI melanoma, in the assay on OVCAR-4 ovarian and with RPMI-8226 leukemia was above 100 µM each time.
